One assay relates to OCI-LY10. The experiment in a line: CTG Cell Viability Assay - OCI-LY10. The note with it: OCI-LY10, 4 days, read-out: CTG Cell Viability Assay - OCI-LY10: Average external-IC50. The format is cell-based, human. In a few lines: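 Viability read by CellTiter-Glo luminescence after 4 days at 37° C under 5% CO2 with compound (top 10 μM final, 1:3 steps, 9 doses, DMSO 0.2%). Three-parameter logistic fit gave IC50.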

For the next assay, the target named is IRAK4 (Homo sapiens (Human), UniProt Q9NWZ3). The experiment in a line: IRAK4 MSD degradation in OCI-LY10. The format is cell-based. The method, boiled down: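 Remaining IRAK4 quantified by electrochemiluminescent MSD sandwich assay with two anti-IRAK4 antibodies. Compounds were dosed as 8 concentrations in 1:3 steps from a 1 to 10 μM final top on OCI-LY10 cells, incubated 4 to 24 h at 37° C. under 5% CO2. DC50 fitted with a three-parameter logistic curve.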

Setting [1] is: OCI-LY10, 4 hrs, read-out: IRAK4 MSD degradation in OCI-LY10 at 4 hrs: DC50.
[2] abbreviates: OCI-LY10, 24 hrs, read-out: IRAK4 MSD degradation in OCI-LY10 at 24 hrs: DC50.
The mark [3] stands for this setting: OCI-LY10, 4 hrs, MSD, read-out: IRAK4 MSD degradation in OCI-LY10 at 4 hrs: Average external-Abs DC50.
Setting [4] is: OCI-LY10, 24 hrs, MSD, read-out: IRAK4 MSD degradation in OCI-LY10 at 24 hrs: Average external-Abs DC50.

In general, pIC50 refers to −log10 of the IC50, conventionally taken in molar units. In general, DC50 refers to the concentration giving 50% degradation.

pIC50: −log10 of the molar value. Read-outs that look alike come from different tables or passages of the source.

Sequence of IRAK4 (Q9NWZ3 whole entry): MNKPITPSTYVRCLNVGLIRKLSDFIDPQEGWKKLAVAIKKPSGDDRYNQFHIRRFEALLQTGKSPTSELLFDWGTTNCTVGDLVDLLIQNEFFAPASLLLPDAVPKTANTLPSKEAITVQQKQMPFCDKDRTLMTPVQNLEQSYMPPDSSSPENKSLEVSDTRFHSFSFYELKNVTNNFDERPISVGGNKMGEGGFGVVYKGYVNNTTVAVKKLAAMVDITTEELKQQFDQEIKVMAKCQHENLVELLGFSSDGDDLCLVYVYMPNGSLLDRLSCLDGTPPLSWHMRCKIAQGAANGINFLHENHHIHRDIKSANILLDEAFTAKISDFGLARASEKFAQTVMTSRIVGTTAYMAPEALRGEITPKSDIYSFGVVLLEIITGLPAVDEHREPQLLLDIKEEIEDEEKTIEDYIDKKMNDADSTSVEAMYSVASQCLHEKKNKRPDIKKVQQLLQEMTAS

As to `CN(CCCN1CCO[C@H](CNc2cccc3c2C(=O)N(C2CCC(=O)NC2=O)C3=O)C1)C[C@H]1CC[C@H](n2cc(NC(=O)c3cnn4ccc(N5C[C@H]6C[C@@H]5CO6)nc34)c(C(F)F)n2)CC1` (some centres unmarked) [I-475], in the assay with OCI-LY10 (Homo sapiens, OCI-Ly10, 96 h), the pIC50 was > 7.30. For the same compound, the DC50 on IRAK4 (setting [1]) was 10 to 100 nM; on IRAK4 (setting [2]), < 10 nM.
On to `Cc1c[nH]c2ncnc(N[C@H]3CC[C@H](N4CCN(C(=O)COCCOCCOCCOCCCc5cccc6c5n(C)c(=O)n6C5CCC(=O)NC5=O)CC4)CC3)c12` (some centres unmarked) [I-25], for which the negative-log IC50 (pIC50) in the assay with OCI-LY10 (Homo sapiens, OCI-Ly10, 96 h) was < 6.00. Besides, the DC50 at IRAK4 (setting [3]) and on IRAK4 (setting [4]) was > 1000 nM in each case.
Consider `CC[C@@H]1[C@H](F)C(=O)N[C@@H]1COc1ncc(C#C[C@H]2CC[C@H](CN3CCO[C@@H](COCCCNc4cccc5c4C(=O)N(C4CCC(=O)NC4=O)C5=O)C3)CC2)c2cc(C(N)=O)c(OC)cc12` (some centres unmarked) [I-342], for which the negative-log IC50 (pIC50) in the assay with OCI-LY10 (Homo sapiens, OCI-Ly10, 96 h) is 7.00 to 7.30. Also, at IRAK4 (setting [3]), the DC50 was 100 to 1000 nM.
In the same order, the values of `NC(=O)c1nn([C@H]2CC[C@@H](C(=O)NCCOCCOCCNc3cccc4c3C(=O)N(C3CCC(=O)NC3=O)C4=O)CC2)cc1NC(=O)c1coc(-c2ccnc(NCC(F)(F)F)c2)n1` (single isomer, unassigned) [I-14, N-(3-carbamoyl-1-((1s,4s)-4-((2-(2-(2-((2-(2,6-dioxopiperidin-3-yl)-1,3-dioxoisoindolin-4-yl)amino)ethoxy)ethoxy)ethyl)carbamoyl)cyclohexyl)-1H-pyrazol-4-yl)-2-(2-((2,2,2-trifluoroethyl)amino)pyridin-4-yl)oxazole-4-carboxamide] are 6.30 to 7.00 and 10 to 100 nM.
For `CN(CCC#CCN)C[C@H]1CC[C@H](n2cc(NC(=O)c3cnn4ccc(N5CCOCC5)nc34)c(C(F)F)n2)CC1` [I-412, N-[1-[4-[[5-aminopent-3-ynyl(methyl)amino]methyl]cyclohexyl]-3-(difluoromethyl)pyrazol-4-yl]-5-morpholino-pyrazolo [1,5-a]pyrimidine-3-carboxamide], the pIC50 in the assay on OCI-LY10 (Homo sapiens, OCI-Ly10, 96 h) is < 6.00. Further, the DC50 at IRAK4 (setting [3]) and at IRAK4 (setting [4]) was > 1000 nM in each case.
As for `CC[C@H]1C(COc2ncc(C#C[C@H]3CC[C@H](CN(C)Cc4ccc(CCNc5cccc6c5C(=O)N(C5CCC(=O)NC5=O)C6=O)cc4)CC3)c3cc(C(N)=O)c(OC)cc23)NC(=O)[C@H]1F` (some centres unmarked) [I-329], the negative logarithm of the IC50 (pIC50) with OCI-LY10 (Homo sapiens, OCI-Ly10, 96 h) was < 6.00. Further, on IRAK4 (setting [3]), the DC50 lay within 100 to 1000 nM.
In the case of `CN(CCCCCCCNC(=O)c1ccc(CNCc2ccc(-c3ccc4c(cnn4CC4CC4)c3)cc2)cc1)C[C@H]1CC[C@H](n2cc(NC(=O)c3coc(-c4ccnc(NCC5CC5)c4)n3)c(C(F)F)n2)CC1` [I-135], the negative-log IC50 (pIC50) in the assay on OCI-LY10 (Homo sapiens, OCI-Ly10, 96 h) was < 6.00. The DC50 at IRAK4 (setting [3]) was 100 to 1000 nM; on IRAK4 (setting [4]), > 1000 nM.
Turning to `CN1C(=O)C(C2CCC(=O)NC2=O)c2cccc(CCCOC3CCN(C[C@H]4CC[C@H](n5cc(NC(=O)c6cnn7ccc(N8CCC(C)(O)CC8)nc67)c(C(F)F)n5)CC4)CC3)c21` (some centres unmarked) [I-286], the negative logarithm of the IC50 (pIC50) in the assay with OCI-LY10 (Homo sapiens, OCI-Ly10, 96 h) is < 6.00. Further, the DC50 at IRAK4 (setting [3]) lay in the range of 10 to 100 nM.
Consider `O=C1CCC(N2C(=O)c3cccc(N4CCC(CCN5CCC(n6cc(NC(=O)c7cnn8ccc(N9CCOCC9)nc78)c(C(F)F)n6)CC5)CC4)c3C2=O)C(=O)N1` (centres unmarked) [I-227], for which, in the assay on OCI-LY10 (Homo sapiens, OCI-Ly10, 96 h), the negative-log IC50 (pIC50) was > 7.30. Besides, at IRAK4 (setting [3]), the 50% degradation concentration (DC50) is 100 to 1000 nM.
`O=C1CCC(N2C(=O)c3cccc(NCC4CC5(CCN(Cc6ccc(-n7cc(NC(=O)c8cnn9ccc(N%10C[C@H]%11C[C@@H]%10CO%11)nc89)c(C(F)F)n7)cc6)CC5)C4)c3C2=O)C(=O)N1` (some centres unmarked) [I-462]: in the assay with OCI-LY10 (Homo sapiens, OCI-Ly10, 96 h), the pIC50 was > 7.30. The half-maximal degradation concentration (DC50) at IRAK4 (setting [1]) was 100 to 1000 nM; on IRAK4 (setting [2]), > 1000 nM.
Regarding `CN1C(=O)C(C2CCC(=O)NC2=O)c2ccc(CN3CCC(N(C)C[C@H]4CC[C@H](n5cc(NC(=O)c6coc(-c7ccnc(NCC8CC8)c7)n6)c(C(F)F)n5)CC4)CC3)cc21` (some centres unmarked) [I-239], the pIC50 with OCI-LY10 is < 6.00. Also, on IRAK4 (setting [3]), the 50% degradation concentration (DC50) lay within 10 to 100 nM.
For `CN(CCCOCCCc1cccc2c1C(=O)N(C1CCC(=O)NC1=O)C2=O)C[C@H]1CC[C@H](n2cc(NC(=O)c3coc(-c4ccnc(NCC5CC5)c4)n3)c(C(F)F)n2)CC1` (some centres unmarked) [I-167], the pIC50 with OCI-LY10 (Homo sapiens, OCI-Ly10, 96 h) is 6.30 to 7.00. Also, the half-maximal degradation concentration (DC50) at IRAK4 (setting [3]) is 100 to 1000 nM.
As to `CC[C@@H]1[C@H](F)C(=O)N[C@@H]1COc1ncc(C#CC2CCN(CCCC3CCN(Cc4ccc5c(c4)n(C)c(=O)n5C4CCC(=O)NC4=O)CC3)CC2)c2cc(C(N)=O)c(OC)cc12` (some centres unmarked) [I-193], the pIC50 in the assay with OCI-LY10 (Homo sapiens, OCI-Ly10, 96 h) was < 6.00. The DC50 on IRAK4 (setting [3]) lay in the range of 100 to 1000 nM; at IRAK4 (setting [4]) it was 10 to 100 nM.
For `O=C1CCC(N2C(=O)c3cccc(NCCCOC4CCN(C[C@H]5CC[C@H](n6cc(NC(=O)c7cnn8ccc(N9C%10COCC9C%10)nc78)c(C(F)F)n6)CC5)CC4)c3C2=O)C(=O)N1` (some centres unmarked) [I-345] the same measures were > 7.30, 100 to 1000 nM and 10 to 100 nM.
On to `CN(C(=O)c1cnn2ccc(N3CCOCC3)nc12)c1cn([C@H]2CC[C@H](CN3CCN(Cc4ccc(COc5cccc6c5CN(C5CCC(=O)NC5=O)C6=O)cc4)CC3)CC2)nc1C(F)F` (some centres unmarked) [I-503], for which the negative-log IC50 (pIC50) with OCI-LY10 (Homo sapiens, OCI-Ly10, 96 h) was > 7.30. The 50% degradation concentration (DC50) on IRAK4 (setting [1]) and on IRAK4 (setting [2]) was > 1000 nM each time.
